In US20100248390A1, “COMPOSITIONS AND METHODS FOR IDENTIFYING LIGANDS OF ODORANT RECEPTORS” (DUKE UNIVERSITY, priority 2009, published 2010):

Legend:
Experiment in all cases: CRE-luciferase assay of odorant receptor activation (Dual-Glo, Hana3A cells, RTP1S), dose-response EC50
Assay type in all cases: cell-based
[1] = system: mouse odorant receptors (ORs); conditions: for log EC50, MOR203-1: receptor MOR203-1; for log EC50, MOR261-1: receptor MOR261-1
Excerpt: (§1) Cloning mouse and human ORs. […] OR open reading frames were amplified from genomic DNA using proofreading KOD DNA polymerase (Toyobo/Novagen) and subcloned into pCI expression vectors (Promega) containing the first 20 residues of human rhodopsin (Rho tag). The sequences of the cloned receptors were verified by sequencing (3100 Genetic Analyzer, ABI Biosystems). Immunocytochemistry and FACS analysis. […] For FACS analysis, phycoerythrin (PE)-conjugated anti-mouse IgG (Jackson Immunologicals) was used. In order to monitor the transfection efficiency, Green Fluorescent Protein (GFP) was co-transfected with the OR. The intensity of receptor cell surface expression was calculated as the ratio of PE and GFP expression. 7-aminoactinomycin D (Calbiochem) was added before flow cytometry to mark dead cells which were excluded from the analysis. The gate and mean of PE positive cells was normalized by GFP values. Luciferase assay. […] Odorant receptor activation leads to an increase in intracellular cAMP; CRE-luciferase (Stratagene) was used to measure this change. […] Hana3A cells were plated on poly-D-lysine-coated 96-well plates (BioCoat; Becton Dickinson). […] For each 96-well plate transfected, 1 μg of CRE-Luc, 1 μg of pRL-SV40, 5 μg of odorant receptor plasmid, and 1 μg of RTP1S was used. Approximately 24 hours post transfection, the medium was replaced with CD293 chemically defined medium (Gibco) and the plate was incubed for 30 min at 37° C. The medium was then replaced with 25 μL of odorant solution diluted in CD293 and the plate was incubated for 4 hrs at 37° C. and 5% CO2. The manufacturer's protocols for measuring luciferase and Renilla luciferase activities was followed. […] All luminescence values were divided by the Renilla Luciferase activity to control for transfection efficiency in a given well. Normalized luciferase activity was calculated using the formula (LN−Lmin)/(Lmax−Lmin), where LN is the luminescence of firefly luciferase in response to the odorant, Lmin is the minimum luciferase value on a plate or set of plates, and Lmax is the maximum luciferase value on a plate or set of plates. The data was analyzed using Microsoft Excel and GraphPad Prism 4. Screening procedure. The entire OR library was stimulated with eight separate odorant mixtures formed from 93 odorants (FIG. 12). […] A comparison between the 93 individual odorants at a 100 μM dose and a no-odor control was performed for all 290 […]. Each comparison was performed in triplicate; statistical significance was assessed by t-test (uncorrected for multiple comparisons). […] A single odorant was used on each plate to avoid cross-contamination, and each OR odorant dose was tested at least three times. The data was fit to a sigmoidal curve. […] Physicochemical descriptors. […] Receptor descriptors. […] Correlations between descriptors and responses. […] All odorants for which there were fewer than 3 responsive receptors were eliminated. For all remaining odorant pairs the Pearson correlation between EC50 vectors and the Euclidean distance between descriptor vectors was calculated. The Pearson correlation between these two sets of distances was then measured. Optimizing descriptors. […] In this method one begins with an empty set of descriptors. Each descriptor is combined with the previous set of descriptors and correlation values are computed for all of these candidate sets of descriptors. To reduce overfitting, the data is randomly divided into ten subsets and correlation values are computed for each leave-one out subset. The final correlation coefficient for each set of descriptors is the average of the correlation coefficients for each subset. The set with the best correlation coefficient then becomes the new set of descriptors and the process is repeated until the correlation coefficient increases by less than 0.004 in three consecutive iterations.

[2] = target: T1, human odorant receptors (ORs) (Homo sapiens, UniProt O76002); conditions: receptor OR2J2; 0 = no response; read-out: log EC50, OR2J2 (converted)
T1 construct: OR open reading frames were amplified from genomic DNA; expressed in transfected cells; host or cells: Hana3A cells, co-transfected with RTP1S, CRE-luciferase and pRL-SV40
T1 sequence (O76002 1-312): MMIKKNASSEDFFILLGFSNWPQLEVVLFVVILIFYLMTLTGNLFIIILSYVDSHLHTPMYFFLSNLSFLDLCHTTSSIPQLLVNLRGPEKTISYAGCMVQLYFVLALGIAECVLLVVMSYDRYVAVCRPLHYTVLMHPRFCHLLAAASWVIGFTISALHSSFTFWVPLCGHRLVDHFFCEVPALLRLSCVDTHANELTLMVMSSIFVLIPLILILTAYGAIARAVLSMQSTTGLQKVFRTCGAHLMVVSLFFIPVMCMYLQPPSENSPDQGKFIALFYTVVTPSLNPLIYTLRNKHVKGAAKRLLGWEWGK
Excerpt: as §1, with “For all remaining odorant pairs the Pearson correlation between EC50 vectors and the Euclidean distance between descriptor vectors was calculated.” left out, “subset.” for “subset. The set with the best correlation coefficient then becomes the new set of descriptors and the process is repeated until the correlation coefficient increases by less than 0.004 in three consecutive iterations.”
(§2) The entire OR library was stimulated with one of 8 odorant mixtures drawn from 93 odorants chosen to represent diverse functional groups, sizes, and structures (Table 3). Each mixture was applied at five different concentrations. […] The 93 odorants were then applied individually at 100 μM to the 290 mixture-responsive ORs.

[3] = target: T2, human odorant receptors (ORs) (Homo sapiens, UniProt Q9Y3N9); conditions: receptor OR2W1; 0 = no response; read-out: log EC50, OR2W1 (converted)
T2 construct: OR open reading frames were amplified from genomic DNA; expressed in transfected cells; host or cells: Hana3A cells, co-transfected with RTP1S, CRE-luciferase and pRL-SV40
T2 sequence (Q9Y3N9 1-320): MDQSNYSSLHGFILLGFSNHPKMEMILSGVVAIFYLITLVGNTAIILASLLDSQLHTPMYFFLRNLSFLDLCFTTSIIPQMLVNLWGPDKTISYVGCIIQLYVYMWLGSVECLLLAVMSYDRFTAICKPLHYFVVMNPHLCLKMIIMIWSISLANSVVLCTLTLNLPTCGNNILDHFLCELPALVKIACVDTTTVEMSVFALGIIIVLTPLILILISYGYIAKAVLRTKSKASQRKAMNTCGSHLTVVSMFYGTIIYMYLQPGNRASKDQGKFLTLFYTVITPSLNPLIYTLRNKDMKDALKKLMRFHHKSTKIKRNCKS
Excerpt: as §1, with “For all remaining odorant pairs the Pearson correlation between EC50 vectors and the Euclidean distance between descriptor vectors was calculated.” left out, “subset.” for “subset. The set with the best correlation coefficient then becomes the new set of descriptors and the process is repeated until the correlation coefficient increases by less than 0.004 in three consecutive iterations.”
as §2

[4] = target: T3, human odorant receptors (ORs) (Homo sapiens, UniProt Q8TCB6); conditions: receptor OR51E1
T3 construct: OR open reading frames were amplified from genomic DNA; expressed in transfected cells; host or cells: Hana3A cells, co-transfected with RTP1S, CRE-luciferase and pRL-SV40
T3 sequence (Q8TCB6 1-318): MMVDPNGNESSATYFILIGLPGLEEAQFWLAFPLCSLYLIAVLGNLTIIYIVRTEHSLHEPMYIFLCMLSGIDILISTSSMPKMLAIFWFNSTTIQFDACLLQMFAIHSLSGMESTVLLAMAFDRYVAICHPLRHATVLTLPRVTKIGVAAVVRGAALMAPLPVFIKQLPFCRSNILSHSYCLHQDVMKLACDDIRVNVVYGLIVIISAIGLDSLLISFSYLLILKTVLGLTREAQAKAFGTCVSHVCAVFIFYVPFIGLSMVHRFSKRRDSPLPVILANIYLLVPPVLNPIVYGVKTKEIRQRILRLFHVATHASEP
Excerpt: as §1, with “For all remaining odorant pairs the Pearson correlation between EC50 vectors and the Euclidean distance between descriptor vectors was calculated.” left out, “subset.” for “subset. The set with the best correlation coefficient then becomes the new set of descriptors and the process is repeated until the correlation coefficient increases by less than 0.004 in three consecutive iterations.”
as §2

[5] = target: T4, human odorant receptors (ORs) (Homo sapiens, UniProt Q8NGJ5); conditions: receptor OR51L1; read-out: log EC50 of odorant at OR51L1 (0 = no response) (converted)
T4 construct: OR open reading frames were amplified from genomic DNA; expressed in transfected cells; host or cells: Hana3A cells, co-transfected with RTP1S, CRE-luciferase and pRL-SV40
T4 sequence (Q8NGJ5 1-315): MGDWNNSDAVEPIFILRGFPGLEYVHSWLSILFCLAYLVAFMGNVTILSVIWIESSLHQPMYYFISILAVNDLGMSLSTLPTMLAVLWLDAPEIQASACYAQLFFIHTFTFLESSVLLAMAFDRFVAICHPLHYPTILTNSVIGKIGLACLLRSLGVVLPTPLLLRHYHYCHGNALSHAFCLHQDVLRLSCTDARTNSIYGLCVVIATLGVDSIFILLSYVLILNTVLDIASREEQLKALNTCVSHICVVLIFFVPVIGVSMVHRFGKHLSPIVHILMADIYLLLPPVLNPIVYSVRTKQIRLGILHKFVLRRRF
Excerpt: as §1, with “For all remaining odorant pairs the Pearson correlation between EC50 vectors and the Euclidean distance between descriptor vectors was calculated.” left out, “subset.” for “subset. The set with the best correlation coefficient then becomes the new set of descriptors and the process is repeated until the correlation coefficient increases by less than 0.004 in three consecutive iterations.”
as §2

Row | log EC50, MOR203-1 ([1]; 0 = no response) | log EC50, MOR261-1 ([1]; 0 = no response) | EC50 [2] [µM] | EC50 [3] [µM] | log EC50, MOR268-1 ([1]; receptor MOR268-1, 0 = no response) | log EC50 (Table 4 value), OR51E1 [4] | Compound | log EC50 of odorant at MOR1-1 (0 = no response) ([1]; receptor MOR1-1) | EC50 [5] [µM]
1 | −4.456 | −4.914 | 69.2 | 23.4 | – | – | CCCCCCCCCO [1-Nononol] | – | –
2 | −3.563 | −5.192 | 69.2 | 7.45 | −3.63 | – | CCCCCCCCO [1-Octanol] | – | –
3 | – | – | – | – | – | −3.473 | CCCCOC(=O)C(C)OC(=O)CCC (stereo not drawn) [Butyl butyryl actate] | – | –
4 | – | – | – | – | – | – | CCCCCC(=O)O [Hexanoic acid] | −4.625 | 147
